Patent US20230021448A1, “COMPOUNDS AND COMPOSITIONS FOR TREATING CONDITIONS ASSOCIATED WITH STING ACTIVITY” (IFM Due, Inc., priority 2019, published 2023)

The compounds below were run against T1, STING (Homo sapiens, UniProt Q86WV6, G230A/H232R/R293Q/R71H) (assay: STING reporter assay: luciferase reporter activity in THP1-Dual KO-IFNAR2 cells stimulated with 2'3'cGAMP). Settings: 2′3′cGAMP 15 μM final, 24h, read-out: hSTING: EC50.
T1 construct: host or cells: THP1-Dual KO-IFNAR2 cells
Format: cell-based
Procedure: STING pathway activation by the compounds described herein was measured using THIP1-Dua1™ cells (KO-IFNAR2).
TTIP1-Dual™ KO-IFNAR2 Cells (obtained from invivogen) were maintained in RPMI, 10% FCS, 5 ml P/S, 2 mM L-glut, 10 mM Hepes, and 1 mM sodium pyruvate. Compounds were spotted in empty 384 well tissue culture plates (Greiner 781182) by Echo for a final concentration of 0.0017-100 μM. Cells were plated into the TC plates at 40 μL per well, 2×10E6 cells/mL. For activation with STING ligand, 2′3′cGAMP (MW 718.38, obtained from Invivogen), was prepared in Optimem media.
The following solutions were prepared for each 1×384 plate: • Solution A: 2 mL Optimem with one of the following stimuli: • […] • Solution B: 2 mL Optimem with 60 μL Lipofectamine 2000->Incubate 5 min at RT
2 mL of solution A and 2 ml Solution B was mixed and incubated for 20 min at room temperature (RT). 20 uL of transfection solution (A+B) was added on top of the plated cells, with a final 2′3′cGAMP concentration of 15 μM. The plates were then centrifuged immediately at 340 g for 1 minute, after which they were incubated at 37° C., 5% C02, >98% humidity for 24h. Luciferase reporter activity was then measured. EC50 values were calculated by using standard methods known in the art.
Luciferase reporter assay: 10 μL of supernatant from the assay was transferred to white 384-plate with flat bottom and squared wells. One pouch of QUANTI-Luc™ Plus was dissolved in 25 mL of water. 100 μL of QLC Stabilizer per 25 mL of QUANTI-Luc™ Plus solution was added. 50 μL of QUANTI-Luc™ Plus/QLC solution per well was then added. Luminescence was measured on a Platereader (e.g., Spectramax I3X (Molecular Devices GF3637001)).
Luciferase reporter activity was then measured. EC50 values were calculated by using standard methods known in the art.

T1 sequence (Q86WV6 whole entry R71H/G230A/H232R/R293Q): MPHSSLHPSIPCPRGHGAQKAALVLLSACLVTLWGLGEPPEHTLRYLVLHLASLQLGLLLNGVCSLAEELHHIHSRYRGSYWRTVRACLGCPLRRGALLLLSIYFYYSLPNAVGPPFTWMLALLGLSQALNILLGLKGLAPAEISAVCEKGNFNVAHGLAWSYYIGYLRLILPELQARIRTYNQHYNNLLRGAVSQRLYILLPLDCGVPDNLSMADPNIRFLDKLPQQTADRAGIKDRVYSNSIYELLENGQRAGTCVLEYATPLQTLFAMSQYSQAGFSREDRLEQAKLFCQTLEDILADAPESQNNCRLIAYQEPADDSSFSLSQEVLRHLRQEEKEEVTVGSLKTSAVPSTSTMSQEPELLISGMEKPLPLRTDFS

Question: Which EC50 does the source give for `Cc1c(CNC(=O)C(=O)Nc2c[nH]c3cc(F)c(F)cc23)cccc1C(F)(F)F` [Compound 132, N1-(5,6-difluoro-1H-indol-3-yl)-N2-(2-methyl-3-(trifluoromethyl)benzyl)oxalamide] here?
Answer: The EC50 was 200 to 1000 nM.

Question: `O=C(NCc1ccc(C(F)(F)F)c(Cl)c1)C(=O)Nc1c[nH]c2ccc(Br)cc12` [Compound 133] was tested. Which EC50 did it give?
Answer: Its EC50 is 40 to 200 nM.

Question: `Cc1ccc(CNC(=O)C(=O)Nc2c[nH]c3ccc(-c4cccc(CO)c4)cc23)cc1C(F)(F)F` [Compound 134] was tested. Which EC50 did it give?
Answer: The EC50 was 200 to 1000 nM.

Question: Which EC50 does the source give for `O=C(NC[C@@H](C(F)F)C1CCCCC1)C(=O)Nc1c[nH]c2cc(F)c(F)cc12` [Compound 135] here?
Answer: The EC50 was 200 to 1000 nM.

Question: `O=C(NC[C@H](C(F)F)C1CCCCC1)C(=O)Nc1c[nH]c2cc(F)c(F)cc12` [Compound 136] was tested. Which EC50 did it give?
Answer: The EC50 was 40 to 200 nM.

Question: `CC(C)(NC(=O)C(=O)Nc1c[nH]c2cc(F)c(F)cc12)c1ccc(C(F)(F)F)c(Cl)c1` [Compound 137] was tested. Which EC50 did it give?
Answer: Its EC50 is 200 to 1000 nM.

Question: For `O=C(NCCc1ccccc1C(F)(F)F)C(=O)Nc1c[nH]c2cc(F)c(F)cc12` [Compound 138, N1-(5,6-difluoro-1H-indol-3-yl)-N2-(2-(trifluoromethyl)phenethyl) oxalamide], which EC50 is on record?
Answer: The EC50 was 200 to 1000 nM.

Question: With `O=C(NCC(c1ccccc1)C(F)F)C(=O)Nc1c[nH]c2cc(F)c(F)cc12` (stereo not shown) [Compound 139] as the compound, how does the EC50 read?
Answer: The EC50 was 200 to 1000 nM.

Question: How did the EC50 turn out when `O=C(NCC1(c2cccc(Cl)c2)CCOCC1)C(=O)Nc1c[nH]c2cc(F)c(F)cc12` [Compound 140] was run?
Answer: Its EC50 is 1000 to 5000 nM.

Question: With `CN(Cc1ccc(C(F)(F)F)c(Cl)c1)C(=O)C(=O)Nc1c[nH]c2cc(F)c(F)cc12` [Compound 141] as the compound, how does the EC50 read?
Answer: Its EC50 is 5000 to 100000 nM.

Question: For `O=C(NCC(C(F)F)C1CCCCC1)C(=O)Nc1c[nH]c2cc(F)c(F)cc12` (stereo not shown) [Compound 142], which EC50 is on record?
Answer: Its EC50 is 200 to 1000 nM.

Question: `O=C(NCCc1ccc(C(F)(F)F)c(Cl)c1)C(=O)Nc1c[nH]c2cc(F)c(F)cc12` [Compound 143] was tested. Which EC50 did it give?
Answer: Its EC50 is 200 to 1000 nM.

Question: Which EC50 does the source give for `O=C(NCCc1ccc(C(F)(F)F)cc1)C(=O)Nc1c[nH]c2cc(F)c(F)cc12` [Compound 144, N1-(5,6-difluoro-1H-indol-3-yl)-N2-(4-(trifluoromethyl)phenethyl) oxalamide] here?
Answer: The EC50 was 200 to 1000 nM.

Question: For `O=C(NCC1CCc2ccccc2O1)C(=O)Nc1c[nH]c2cc(F)c(F)cc12` (stereo not shown) [Compound 145, N-(chroman-2-ylmethyl)-N2-(5,6-difluoro-1H-indol-3-yl)oxalamide], which EC50 is on record?
Answer: The EC50 was 200 to 1000 nM.

Question: How did the EC50 turn out when `O=C(NCC1(c2ccccc2)CC1)C(=O)Nc1c[nH]c2cc(F)c(F)cc12` [Compound 146, N1-(5,6-difluoro-1H-indol-3-yl)-N2-((1-phenylcyclopropyl)methyl)oxalamide] was run?
Answer: Its EC50 is 200 to 1000 nM.

Question: Which EC50 does the source give for `Cc1ccc(OCCNC(=O)C(=O)Nc2c[nH]c3cc(F)c(F)cc23)cc1C` [Compound 147, N1-(5,6-difluoro-1H-indol-3-yl)-N2-(2-(3,4-dimethylphenoxy)ethyl)oxalamide] here?
Answer: The EC50 was 200 to 1000 nM.

Question: For `O=C(NCc1cccc2c1OC(F)(F)O2)C(=O)Nc1c[nH]c2cc(F)c(F)cc12` [Compound 148, N1-(5,6-difluoro-1H-indol-3-yl)-N2-((2,2-difluorobenzo[d] [1,3]dioxol-4-yl)methyl) oxalamide], which EC50 is on record?
Answer: Its EC50 is 40 to 200 nM.

Question: Which EC50 does the source give for `O=C(NCCOc1ccc(C(F)(F)F)cc1)C(=O)Nc1c[nH]c2cc(F)c(F)cc12` [Compound 149, N1-(5,6-difluoro-1H-indol-3-yl)-N2-(2-(4-(trifluoromethyl)phenoxy)ethyl) oxalamide] here?
Answer: The EC50 was 200 to 1000 nM.

Question: Which EC50 does the source give for `O=C(NCC1CCCC(F)(F)C1)C(=O)Nc1c[nH]c2cc(F)c(F)cc12` (stereo not shown) [Compound 150, N1-(5,6-difluoro-1H-indol-3-yl)-N2-((3,3-difluorocyclohexyl)methyl)oxalamide] here?
Answer: Its EC50 is 200 to 1000 nM.

Question: With `O=C(NCC1CCC(F)(F)CC1)C(=O)Nc1c[nH]c2cc(F)c(F)cc12` [Compound 151, N1-(5,6-difluoro-1H-indol-3-yl)-N2-((4,4-difluorocyclohexyl)methyl) oxalamide] as the compound, how does the EC50 read?
Answer: Its EC50 is 200 to 1000 nM.

Question: With `O=C(NCCC1(C(F)(F)F)CC1)C(=O)Nc1c[nH]c2cc(F)c(F)cc12` [Compound 152, N1-(5,6-difluoro-1H-indol-3-yl)-N2-(2-(1-(trifluoromethyl)cyclopropyl)ethyl)oxalamide] as the compound, how does the EC50 read?
Answer: The EC50 was 200 to 1000 nM.

Question: For `CC1(CNC(=O)C(=O)Nc2c[nH]c3cc(F)c(F)cc23)CCC(F)(F)CC1` [Compound 153, N1-((4,4-difluoro-1-methylcyclohexyl)methyl)-N2-(5,6-difluoro-1H-indol-3-yl)oxalamide], which EC50 is on record?
Answer: The EC50 was 1000 to 5000 nM.

Question: With `Cc1cc(F)c(Cl)cc1NC(=O)C(=O)Nc1c[nH]c2cc(F)c(F)cc12` [Compound 154, N1-(5-chloro-4-fluoro-2-methylphenyl)-N2-(5,6-difluoro-1H-indol-3-yl)oxalamide] as the compound, how does the EC50 read?
Answer: The EC50 was 200 to 1000 nM.

Question: For `O=C(NCC(F)(F)c1ccccc1)C(=O)Nc1c[nH]c2cc(F)c(F)cc12` [Compound 155, N1-(5,6-difluoro-1H-indol-3-yl)-N2-(2,2-difluoro-2-phenylethyl) oxalamide], which EC50 is on record?
Answer: The EC50 was 200 to 1000 nM.

Question: Which EC50 does the source give for `CC(NC(=O)C(=O)Nc1c[nH]c2cc(F)c(F)cc12)c1ccc(C(F)(F)F)cc1` (stereo not shown) [Compound 156, N1-(5,6-difluoro-1H-indol-3-yl)-N2-(1-(4-(trifluoromethyl)phenyl)ethyl) oxalamide] here?
Answer: Its EC50 is 200 to 1000 nM.

Question: With `O=C(Nc1ccc(OCC(F)(F)F)nc1)C(=O)Nc1c[nH]c2cc(F)c(F)cc12` [Compound 157, N1-(5,6-difluoro-1H-indol-3-yl)-N2-(6-(2,2,2-trifluoroethoxy)pyridin-3-yl) oxalamide] as the compound, how does the EC50 read?
Answer: The EC50 was 200 to 1000 nM.

Question: With `CC(CNC(=O)C(=O)Nc1c[nH]c2cc(F)c(F)cc12)Oc1ccc(C(F)(F)F)cc1` (stereo not shown) [Compound 158, N1-(5,6-difluoro-1H-indol-3-yl)-N2-(2-(4-(trifluoromethyl)phenoxy)propyl) oxalamide] as the compound, how does the EC50 read?
Answer: Its EC50 is 200 to 1000 nM.

Question: `COc1ccc(CNC(=O)C(=O)Nc2c[nH]c3cc(F)c(F)cc23)cc1C(F)(F)F` [Compound 159, N1-(5,6-difluoro-1H-indol-3-yl)-N2-(4-methoxy-3-(trifluoromethyl)benzyl)oxalamide] was tested. Which EC50 did it give?
Answer: Its EC50 is 200 to 1000 nM.

Question: With `O=C(NCc1ccc(Cl)cc1C(F)(F)F)C(=O)Nc1c[nH]c2cc(F)c(F)cc12` [Compound 160, N1-(4-chloro-2-(trifluoromethyl)benzyl)-N2-(5,6-difluoro-1H-indol-3-yl)oxalamide] as the compound, how does the EC50 read?
Answer: Its EC50 is 200 to 1000 nM.

Question: With `COc1ccc(CNC(=O)C(=O)Nc2c[nH]c3cc(F)c(F)cc23)cc1Cl` [Compound 161, N1-(3-chloro-4-methoxybenzyl) N2-(5,6-difluoro-1H-indol-3-yl)oxalamide] as the compound, how does the EC50 read?
Answer: The EC50 was 200 to 1000 nM.

Question: Which EC50 does the source give for `O=C(NCc1cccc(N2CCCCC2)c1)C(=O)Nc1c[nH]c2cc(F)c(F)cc12` [Compound 162, N1-(5,6-difluoro-1H-indol-3-yl)-N2-(3-(piperidin-1-yl)benzyl) oxalamide] here?
Answer: Its EC50 is 200 to 1000 nM.

Question: `O=C(NCc1cccc(C(F)(F)F)c1F)C(=O)Nc1c[nH]c2cc(F)c(F)cc12` [Compound 163, N1-(5,6-difluoro-1H-indol-3-yl)-N2-(2-fluoro-3-(trifluoromethyl)benzyl)oxalamide] was tested. Which EC50 did it give?
Answer: Its EC50 is 200 to 1000 nM.

Question: For `O=C(NCc1ccc(Cl)c(C(F)(F)F)c1)C(=O)Nc1c[nH]c2cc(F)c(F)cc12` [Compound 164, N1-(4-chloro-3-(trifluoromethyl)benzyl)-N2-(5,6-difluoro-1H-indol-3-yl)oxalamide], which EC50 is on record?
Answer: Its EC50 is 40 to 200 nM.

Question: For `O=C(NCc1ccccc1C(F)(F)F)C(=O)Nc1c[nH]c2cc(F)c(F)cc12` [Compound 165, N1-(5,6-difluoro-1H-indol-3-yl)-N2-(2-(trifluoromethyl)benzyl)oxalamide], which EC50 is on record?
Answer: The EC50 was 40 to 200 nM.
